The values below are quoted from earlier work in patent US11654108B1, “Sennoside medicated chews” (MEDICATED CHEWS, LLC, priority 2022, dated 2023).

Where [1] appears, read: after oral administration of sennosides.

As for sennosides, under setting [1], the “metabolites excreted in urine” value is given as 3-6%; the “sennosides excreted in feces as polymers (polyquinones)” value is listed as 90%; the “unchanged sennosides, sennidins, rheinanthrone and rhein excreted in feces” value is recorded as 2-6%. In addition, the “absorption in the upper gut / splitting by human digestive enzymes” value (upper gut, human digestive enzymes) is reported as “neither absorbed in the upper gut nor split by human digestive enzymes”.
